# Measurements reported in patent EP4410284A1, “COMPOUND AND METHOD FOR THE TREATMENT OF ZELLWEGER SPECTRUM DISORDER” (Apteeus, priority 2023, dated 2024).
# Counter-ions that a name gives are not always drawn. Like-named read-outs stand apart in the source and are kept apart here.
# Experiments:
# PEX405 cells [1] = test: Catalase import immunofluorescence, high-content screening (% importing cells); assay type: cell-based, human; conditions: for Concentration (lower dose leading to the maximum effect) / Importing cells (%): PEX405 (PEX1); for Importing cells (%): at the lower dose leading to the maximum effect (see E12); for % Importing cells: PEX405 cells, 3 days
# GM 16865 = test: Catalase import immunofluorescence (% importing cells); assay type: cell-based, human; conditions: GM 16865 (PEX26); for Importing cells (%): at the lower dose leading to the maximum effect (see E22)
# Protocol: (§1) Primary fibroblasts were seeded at 500-700 cells per well in 384-well plates and grown at 37°C overnight. Cells were treated with test compounds or 0.1% DMSO for 3 days. After 3 days and a wash with PBS, cells were fixed with 4% paraformaldehyde (Electron Microscopy Sciences) in PBS for 20 minutes. After 3 washes with PBS, the cells were permeabilized and blocked with 0.3% Triton X-100, 1% BSA in PBS for 30 minutes at room temperature followed by 3 washes with 1% BSA in PBS. The cells were incubated with a rabbit Catalase polyclonal antibody (#12980 Cell signaling) overnight at 4°C. Following 3 washes with PBS containing 0.1% Tween-20, the cells were incubated for 1 h at room temperature with a conjugated goat anti-rabbit secondary antibody Alexa Fluor 647 (Ab150083-Abcam). The cells were then washed 3 times with PBS and Hoechst 33342 (H3570-ThermoFisher Scientific) + HCS Cellmask Blue (H32720 - ThermoFisher Scientific) staining was performed at 0.1 µg/ml and 0.4 µg/mL respectively for 30 minutes at room temperature. The cells were finally washed 3 times with PBS and fluorescent images were acquired using the INCell Analyzer 6000 imaging platform (GE Healthcare Life Sciences).
# (§2) Images analysis was done using Columbus analysis software (PerkinElmer). DAPI channel was used to find nuclei (Hoechst 33342) and cytoplasm (HCS CellMask Blue) and border objects were removed. Cy5 channel (AlexaFluor 647) was used to find spots corresponding to peroxisomes which correctly import catalase. Cells were classified as importing or non-importing cells using a linear classifier method after training with images of wells containing Healthy cells and PEX1 deficient cells. The number of importing or non-importing cells was calculated. Finally, results were expressed as % of importing cells.
# (§3) Among the HDAC inhibitors of example 2, 4 were tested on other cells which are PEX1, PEX6 or PEX26 deficient.
# PEX304 = test: as above; assay type: cell-based, human; conditions: PEX304 (PEX1); for Importing cells (%): at the lower dose leading to the maximum effect (see E14)
# Protocol: as §1, §2, §3
# GM11335 = test: as above; assay type: cell-based, human; conditions: GM11335 (PEX26); for Importing cells (%): at the lower dose leading to the maximum effect (see E20)
# Protocol: as §1, §2, §3
# GM 17398 = test: as above; assay type: cell-based, human; conditions: GM 17398 (PEX26 deficient); for Importing cells (%): at the lower dose leading to the maximum effect (see E24)
# Protocol: as §1, §2, §3
# PEX607 = test: as above; assay type: cell-based, human; conditions: PEX607 (PEX6); for Importing cells (%): at the lower dose leading to the maximum effect (see E18)
# Protocol: as §1, §2, §3
# PEX506 = test: as above; assay type: cell-based, human; conditions: PEX506 (PEX6); for Importing cells (%): at the lower dose leading to the maximum effect (see E16)
# Protocol: as §1, §2, §3
# PEX405 cells [2] = assay type: cell-based; conditions: 3 days, PI positive cells (dead cells)
# Protocol: Images were acquired using the EnSight multimode plate reader (PerkinElmer) and analysis was done using Columbus analysis software (PerkinElmer). […] Then the total number of cells and the % of dead cells was calculated.
# All HDAC inhibitors were tested at 1.3 and 10 µM for 3 days on GM16513 and PEX405 cells.
# PEX405 cells [3] = test: Beta-oxidation of d4-C24:0 (LC-MS/MS); assay type: cell-based, human; conditions: 3 days of treatment, dose response manner
# Protocol: Degradation (to d4-C16:0) and elongation (to d4-C26:0 and d4-C28:0) of d4-VLCFA (very long chain fatty acid) in the cells was measured using d4-C24:0 as substrate (D-6145-CDN isotopes). D4-C24:0 was solubilized in culture medium using α-cyclodetrin, with a molar ratio of d4-C24:0:α-cyclodextrin 1:50. Cyclodextrins, which are cyclic oligosaccharides, are commonly used to solubilize fatty acids by complexation, for supplementation of cell culture media, and serve as vehicle to deliver fatty acids to the cells. Cyclodextrins have a polar surface and a hydrophobic cylindrical cavity that can bind and solubilize a wide variety of hydrophobic molecules, such as fatty acids, while remaining soluble in water. The assay was performed in T75 culture flasks for 3 or 10 days. The medium was replaced by fresh medium every 2-3 days and supplemented with d4-C24:0 for the last 3 days. After 3 or 10 days, cells were harvested and lysated in water (100-200 µL) by freeze/thaw cycle and sonication for 5 min. Total proteins were quantified using BCA assay and 100 µg of total proteins were used for each sample.
# After cell lysis, the samples were dried using a rotating evaporator (Genevac EZ-2, SP Scientific), set at 40°C for 2h under vacuum. After evaporation, a hydrolysis mix consisting of 90% acetonitrile and 10% NaOH 1N in water was added to the samples. The samples were incubated for 1h at room temperature under stirring (300 rpm). After hydrolysis, the samples were evaporated using a Genevac device, under vacuum, at 40°C for 2h.
# Derivation of free fatty acids was done using a 2.5 mg/mL Na2CO3 solution in DMF and a 2.5 mg/mL TMAE (trimethylammoniumethyl) reagent solution in DMF. The solutions were mixed in a 1:1 ratio, and 200 µL of the mix was added to dry samples to be derived. For the derivation, the samples were incubated for 3h at 50°C. DMF was then evaporated using a Genevac™ device, under vacuum, at 60°C for 4h.
# Before injection, the samples were solubilized in a 90/10 acetonitrile/isopropanol mixture with 1% HCl. After solubilization, the samples were stirred and centrifuged at 4000 rpm for 20 min at 10°C.
# For the separation of the derived fatty acids by liquid chromatography, a Waters Acquity ultra-performance liquid chromatography (UPLC) system (Acquity I-Class, Waters) was used. […]
# After separation by liquid chromatography, the analytes were subjected to MS analysis using a Waters Xevo TQSmicro system (Waters). […] The molecules were analyzed using MRM (multiple reaction monitoring) mode, with the main daughter ion for each derived fatty acid corresponding to the loss of a trimethylammonium moiety (m/z 59). Derived FAs with a chain length from 16 to 28, with no or one unsaturation, were analyzed. […] The acquired data were analyzed by the Waters MassLynx software.
SMILES,Concentration (lower dose leading to the maximum effect) (PEX405 cells [1]) [µM],Importing cells (%) (PEX405 cells [1]),% Importing cells (PEX405 cells [1]; 1.3 µM) [%],% Importing cells (PEX405 cells [1]; 10 µM) [%],Concentration (lower dose leading to the maximum effect) (GM 16865) [µM],Importing cells (%) (GM 16865),Concentration (lower dose leading to the maximum effect) (PEX304) [µM],Importing cells (%) (PEX304),Concentration (lower dose leading to the maximum effect) (GM11335) [µM],Importing cells (%) (GM11335),Concentration (lower dose leading to the maximum effect) (GM 17398) [µM],Importing cells (%) (GM 17398),Concentration (lower dose leading to the maximum effect) (PEX607) [µM],Importing cells (%) (PEX607),Concentration (lower dose leading to the maximum effect) (PEX506) [µM],Importing cells (%) (PEX506),% PI+ cells (PEX405 cells [2]; 1.3 µM) [%],% PI+ cells (PEX405 cells [2]; 10 µM) [%],"d4-C16,C18,C20 and C22 levels (PEX405 cells [3])"
O=C(/C=C/c1cccc(S(=O)(=O)Nc2ccccc2)c1)NO [Belinostat],2.5,41,52,27,0.85,35,2.5,11,0.85,30,2.5,0,0.85,43,0.25,64,1,42,
"CCN(CC)Cc1ccc2cc(COC(=O)Nc3ccc(C(=O)NO)cc3)ccc2c1 [Givinostat (hydrochloride monohydrate), Givinostat]",0.25,13,12,6,0.25,20,0.85,5,0.087,20,2.5,0,0.25,42,0.087,69,3,41,increase
